Consider one compound from patent US20240327469A1, “FUNCTIONALISED POLYPEPTIDES, NANOPARTICLES AND USES THEREOF” (priority 2021, published 2024).

Structures can show the parent of a compound that is named as a salt.

The test system of one test is MCF-7/ADR cells. Description: Cellular morphology staining. It counts as cell-based, human. The note with it: 24 h, PLL-Gua and Gua-NPs 25 μg/mL, DOX 5.8 μg/mL. How it is done: (§1) MCF-7 and MCF-7/ADR cells were seeded at a density of 1000 cells/well in 50 μL medium, in a 384-well plate (PerkinElmer View Plate-384 Black). […] Treatment was performed at final concentrations of 25 μg/mL for PLL-Gua and Gua-NPs (on PLL-Gua basis) and 5.8 μg/mL for DOX, with a final volume of 40 μL per well. […] Subsequently, mitochondria were stained with Mito Tracker Deep Red solution in medium, with a final concentration of 100 nM. […] To fix the cells, 20 μL of 16% formaldehyde in PBS were added to each well (final concentration: 4%) and incubated in the dark at room temperature for 20 min. The cells were washed two times with 70 μL of Hanks' balanced salt solution (HBSS). […] The cells were incubated in the dark at room temperature for 30 min. Then, the cells were washed three times with 70 μL HBSS. The HBSS was not aspirated after the final washing step. The plates were sealed and centrifuged for 1 min at 500 rpm. The plate was then imaged using an Opera Phenix high content screening microscope (PerkinElmer) in 4 channels (Ex405/Em456; Ex488/Em522; Ex561/Em599; Ex640/Em706) with 9 sites per well and 63× magnification (binning 2).

For test [1], the system named is MCF-7 cells. Description: Cellular morphology staining. The class given is cell-based, human. Conditions: MCF-7, 24 h; PLL-Gua and Gua-NPs 25 μg/mL, DOX 5.8 μg/mL. How it is done: as §1
The next test has as its system MCF-7. Put plainly: In vitro cytotoxicity (alamarBlue). It counts as cell-based. Conditions: Homo sapiens, MCF7; MCF-7, 48 h. How it is done:
(§2) Doxorubicin hydrochloride (DOX) was used as the positive control. For the MCF-7 and MCF-7/ADR, the initial concentration of DOX used was 10 μg/mL and 100 μg/mL, respectively.
A general note: Alamar Blue is a resazurin reagent that responds to reducing activity.

In test [2] the test system is MCF-7 cells. Description: Inhibition of cell migration (wound scratch assay). The class given is cell-based, human. Conditions: 24 h at respective IC50. How it is done: MCF-7 cells (8×10^5/well) were seeded in 6-well plates and incubated overnight for cell adhesion. To create a scratch, a 200 μL pipet tip was used to scrape a straight line through the cell layer. The old media was removed and washed with PBS, and the cells observed under a microscope to acquire images of the original scratch. […] After that, the scratches were observed and imaged using a microscope (Leica, Germany).

In a further test the test system is MCF-7/ADR. Put plainly: In vitro cytotoxicity (alamarBlue). The class given is cell-based, human. Here is the method: as §2

The term IC50 denotes the concentration that gives 50% inhibition. A low value points to higher potency.

For the compound `COc1cccc2c1C(=O)c1c(O)c3c(c(O)c1C2=O)C[C@@](O)(C(=O)CO)C[C@@H]3O[C@H]1C[C@H](N)[C@H](O)[C@H](C)O1` [DOX, Doxorubicin hydrochloride], the cellular morphology entry with MCF-7/ADR cells is “did not induce such changes”; in the test on MCF-7 cells [1], “drastic decrease in the staining of DNA and RNA”. In addition, the midpoint of inhibition with MCF-7, the IC50, lay at 0.13 µg/mL. Besides, the MCF-7 cell migration entry in the test on MCF-7 cells [2] is “reduced wound gap”. In the test with MCF-7/ADR, the “difference of IC50 value, MCF-7/ADR vs MCF-7” value came to 769 fold.
